Data: BindingDB's records for doi:10.1021/jm00121a004 (Merck Sharp & Dohme Research Laboratories, 1989)

Columns and labels:
[1] = Displacement of 125 I-gastrin from gastrin receptor of guinea pig gastric glands
[2] = as above; remark: listed apart in the source
[3] = Displacement of [125 I] CCK-8 from Cholecystokinin type B receptor of guinea pig cerebral cortex

SMILES | IC50 [1] [nM] | IC50 [2] [nM] | IC50 [3] [nM]
CCOC(=O)CN1C(=O)C(NC(=O)Nc2ccc(Cl)cc2)N=C(c2ccccc2F)c2ccccc21 (centres undefined) | 4.1 | – | –
O=C(Nc1ccc(Cl)cc1)NC1N=C(c2ccccc2F)c2ccccc2NC1=O (centres undefined) | – | 640 | 300
CN1C(=O)[C@@H](NC(=O)c2ccc(Cl)cc2)N=C(c2ccccc2F)c2ccccc21 | – | 2500 | 2900
CN1C(=O)[C@H](NC(=O)c2ccc(Cl)cc2)N=C(c2ccccc2F)c2ccccc21 | 7600 | – | 11000
CN1C(=O)C(NC(=O)Nc2ccc(Cl)cc2)N=C(c2ccccc2)c2ccccc21 [(R)-1-(4-Chloro-phenyl)-3-(1-methyl-2-oxo-5-phenyl-2,3-dihydro-1H-benzo[e][1,4]diazepin-3-yl)-urea] | 22 | – | 23
